Source: patent publication US20230322770A1, “SUBSTITUTED HETEROARYL COMPOUNDS USEFUL AS INHIBITORS OF TLR9” (BRISTOL-MYERS SQUIBB COMPANY, priority 2020, published 2023)

Legend:
Type in all cases: cell-based
human TLR9 = biological target: T1, human TLR9 (Homo sapiens, UniProt Q9NR96); experiment: TLR9 inhibition reporter assay (HEK-Blue cells, SEAP reporter); settings: HEK-Blue cells overexpressing human TLR9; stimulated with ODN2006 5 nM; SEAP after 22 hour incubation
T1 construct: host or cells: HEK-Blue cells (HEK293-derived reporter line)
T1 sequence (Q9NR96 26-1032): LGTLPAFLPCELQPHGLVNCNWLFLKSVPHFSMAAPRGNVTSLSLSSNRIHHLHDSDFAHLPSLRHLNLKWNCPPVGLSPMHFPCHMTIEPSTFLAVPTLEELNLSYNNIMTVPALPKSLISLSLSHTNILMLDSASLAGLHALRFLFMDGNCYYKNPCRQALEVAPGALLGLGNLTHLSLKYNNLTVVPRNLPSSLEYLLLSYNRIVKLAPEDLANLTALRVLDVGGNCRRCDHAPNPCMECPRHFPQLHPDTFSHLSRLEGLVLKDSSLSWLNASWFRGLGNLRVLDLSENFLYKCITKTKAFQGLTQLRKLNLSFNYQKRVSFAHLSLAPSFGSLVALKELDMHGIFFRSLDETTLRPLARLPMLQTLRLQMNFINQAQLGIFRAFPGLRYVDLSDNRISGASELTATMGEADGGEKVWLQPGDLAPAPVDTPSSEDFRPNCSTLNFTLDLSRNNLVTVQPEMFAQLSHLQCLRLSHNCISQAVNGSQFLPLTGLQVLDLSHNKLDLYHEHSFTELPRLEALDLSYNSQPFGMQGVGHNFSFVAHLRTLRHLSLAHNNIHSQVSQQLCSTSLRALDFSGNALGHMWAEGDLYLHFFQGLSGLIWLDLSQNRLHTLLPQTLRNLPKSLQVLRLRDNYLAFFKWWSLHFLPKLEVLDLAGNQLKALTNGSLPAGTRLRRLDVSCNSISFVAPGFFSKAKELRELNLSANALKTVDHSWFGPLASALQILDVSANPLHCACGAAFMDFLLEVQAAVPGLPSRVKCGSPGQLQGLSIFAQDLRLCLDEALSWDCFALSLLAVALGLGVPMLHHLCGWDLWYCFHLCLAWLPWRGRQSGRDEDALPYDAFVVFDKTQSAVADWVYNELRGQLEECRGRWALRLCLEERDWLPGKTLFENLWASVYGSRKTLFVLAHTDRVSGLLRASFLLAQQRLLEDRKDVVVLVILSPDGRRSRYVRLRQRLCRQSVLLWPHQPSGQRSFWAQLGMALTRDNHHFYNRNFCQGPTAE
Procedure: (§1) TLR7/8/9 Inhibition Reporter Assays
(§2) HEK-Blue™-cells (Invivogen) overexpressing human TLR7, TLR8 or TLR9 receptors were used for screening inhibitors of these receptors using an inducible SEAP (secreted embryonic alkaline phosphatase) reporter gene under the control of the IFN-β minimal promoter fused to five NF-κB and AP-1-binding sites. Briefly, cells are seeded into Greiner 384 well plates (15000 cells per well for TLR7, 20,000 for TLR8 and 25,000 for TLR9) and then treated with test compounds in DMSO to yield a final dose response concentration range of 0.05 nM-50 μM. After a 30 minute compound pre-treatment at room temperature, the cells are then stimulated with a TLR7 ligand (gardiquimod at a final concentration of 7.5 μM), TLR8 ligand (R848 at a final concentration of 15.9 μM) or TLR9 ligand (ODN2006 at a final concentration of 5 nM) to activate NF-κB and AP-1 which induce the production of SEAP. After a 22 hour incubation at 37° C., 5% CO2, SEAP levels are determined with the addition of HEK-Blue™ Detection reagent (Invivogen), a cell culture medium that allows for detection of SEAP, according to manufacturer's specifications. The percent inhibition is determined as the % reduction in the HEK-Blue signal present in wells treated with agonist plus DMSO alone compared to wells treated with a known inhibitor.

human TLR7 = biological target: T2, human TLR7 (Homo sapiens, UniProt Q9NYK1); experiment: TLR7 inhibition reporter assay (HEK-Blue cells, SEAP reporter); settings: HEK-Blue cells overexpressing human TLR7; stimulated with gardiquimod 7.5 μM; SEAP after 22 hour incubation
T2 construct: host or cells: HEK-Blue cells (HEK293-derived reporter line)
T2 sequence (Q9NYK1 27-1049): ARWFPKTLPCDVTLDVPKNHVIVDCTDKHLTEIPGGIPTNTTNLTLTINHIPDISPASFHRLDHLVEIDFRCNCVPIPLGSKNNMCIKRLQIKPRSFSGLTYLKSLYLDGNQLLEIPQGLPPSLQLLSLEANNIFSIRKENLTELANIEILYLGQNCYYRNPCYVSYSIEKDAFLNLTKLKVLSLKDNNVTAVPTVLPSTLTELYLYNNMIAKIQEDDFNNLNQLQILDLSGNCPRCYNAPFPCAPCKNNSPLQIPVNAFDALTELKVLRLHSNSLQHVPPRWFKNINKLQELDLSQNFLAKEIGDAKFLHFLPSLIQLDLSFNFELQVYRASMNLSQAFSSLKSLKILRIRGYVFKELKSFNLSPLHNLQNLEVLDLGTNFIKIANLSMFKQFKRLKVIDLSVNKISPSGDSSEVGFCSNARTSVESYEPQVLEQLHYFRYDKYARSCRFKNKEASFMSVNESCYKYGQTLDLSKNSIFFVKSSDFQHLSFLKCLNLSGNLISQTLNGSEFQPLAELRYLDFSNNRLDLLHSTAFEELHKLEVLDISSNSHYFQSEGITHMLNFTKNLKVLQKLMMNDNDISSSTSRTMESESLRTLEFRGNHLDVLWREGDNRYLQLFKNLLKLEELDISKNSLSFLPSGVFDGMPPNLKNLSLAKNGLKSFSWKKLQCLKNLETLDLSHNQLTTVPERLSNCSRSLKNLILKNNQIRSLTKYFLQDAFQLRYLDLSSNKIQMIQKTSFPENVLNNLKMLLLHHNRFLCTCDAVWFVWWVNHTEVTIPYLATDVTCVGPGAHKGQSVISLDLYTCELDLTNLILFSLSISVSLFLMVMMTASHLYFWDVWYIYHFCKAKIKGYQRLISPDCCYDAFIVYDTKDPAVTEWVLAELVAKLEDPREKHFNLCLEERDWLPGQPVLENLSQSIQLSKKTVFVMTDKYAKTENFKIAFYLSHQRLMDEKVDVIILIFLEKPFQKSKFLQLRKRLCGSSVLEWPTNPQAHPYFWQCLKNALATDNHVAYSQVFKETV
Procedure: as §1, §2

human TLR8 = biological target: T3, human TLR8 (Homo sapiens, UniProt Q9NR97); experiment: TLR8 inhibition reporter assay (HEK-Blue cells, SEAP reporter); settings: HEK-Blue cells overexpressing human TLR8; stimulated with R848 15.9 μM; SEAP after 22 hour incubation
T3 construct: host or cells: HEK-Blue cells (HEK293-derived reporter line)
T3 sequence (Q9NR97 27-1041): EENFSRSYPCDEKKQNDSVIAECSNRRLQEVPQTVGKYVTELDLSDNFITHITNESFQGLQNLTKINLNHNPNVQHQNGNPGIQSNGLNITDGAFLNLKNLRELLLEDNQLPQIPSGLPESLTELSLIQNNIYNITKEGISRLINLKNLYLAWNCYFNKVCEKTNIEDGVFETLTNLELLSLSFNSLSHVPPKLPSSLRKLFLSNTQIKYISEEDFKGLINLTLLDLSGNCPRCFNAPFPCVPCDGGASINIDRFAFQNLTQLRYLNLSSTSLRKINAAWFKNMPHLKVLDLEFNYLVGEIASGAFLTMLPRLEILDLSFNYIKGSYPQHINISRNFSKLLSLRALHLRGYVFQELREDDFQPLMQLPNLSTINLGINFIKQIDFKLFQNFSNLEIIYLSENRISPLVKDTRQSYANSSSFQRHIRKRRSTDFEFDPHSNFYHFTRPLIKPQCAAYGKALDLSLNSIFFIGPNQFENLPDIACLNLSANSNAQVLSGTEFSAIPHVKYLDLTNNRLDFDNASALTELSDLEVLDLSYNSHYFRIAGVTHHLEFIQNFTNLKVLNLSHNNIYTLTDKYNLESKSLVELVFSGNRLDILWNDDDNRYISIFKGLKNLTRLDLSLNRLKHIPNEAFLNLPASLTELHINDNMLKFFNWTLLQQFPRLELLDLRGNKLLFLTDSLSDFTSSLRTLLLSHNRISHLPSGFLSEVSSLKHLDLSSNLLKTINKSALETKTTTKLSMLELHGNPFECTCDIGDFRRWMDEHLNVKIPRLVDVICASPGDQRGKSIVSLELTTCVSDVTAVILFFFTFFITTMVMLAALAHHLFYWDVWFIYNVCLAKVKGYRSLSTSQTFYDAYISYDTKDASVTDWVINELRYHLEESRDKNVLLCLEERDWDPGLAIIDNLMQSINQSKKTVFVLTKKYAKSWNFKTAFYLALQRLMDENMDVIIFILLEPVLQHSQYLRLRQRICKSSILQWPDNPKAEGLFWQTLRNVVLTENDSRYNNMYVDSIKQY
Procedure: as §1, §2

Row | IC50 (human TLR9) [µM] | IC50 (human TLR7) [µM] | IC50 (human TLR8) [µM] | SMILES
1 | 0.094 | 7 | 7.2 | COc1ccc(-c2cc3ncc(-c4ccc(N5CCN(C(C)C)CC5)cc4)cc3n2C)cc1OC [Example 1, 2-(3,4-Dimethoxyphenyl)-6-(4-(4-isopropylpiperazin-1-yl)phenyl)-1-methyl-1H-pyrrolo[3,2-b]pyridine]
2 | 0.139 | 2.7 | 7.6 | CC(C)N1CCN(c2ccc(-c3cnc4cc(-c5ccc(S(C)(=O)=O)cc5)n(C)c4c3)cc2)CC1 [Example 2, 6-(4-(4-Isopropylpiperazin-1-yl)phenyl)-1-methyl-2-(4-(methylsulfonyl)phenyl)-1H-pyrrolo[3,2-b]pyridine]
3 | 0.018 | 9.7 | 11.1 | CC(C)N1CCN(c2ccc(-c3cc4nc(-c5ccc(S(C)(=O)=O)cc5)cc-4n(C)c3)cc2)CC1 [Example 3, 6-(4-(4-isopropylpiperazin-1-yl)phenyl)-4-methyl-2-(4-(methylsulfonyl)phenyl)-4H-pyrrolo[3,2-b]pyridine]
4 | 4.58 | ≥ 50 | ≥ 50 | COc1ccc(-c2cc3ccc(-c4ccc(N5CCN(C(C)C)CC5)cc4)nc3n2C)cc1OC [Example 7, 2-(3,4-Dimethoxyphenyl)-6-(4-(4-isopropylpiperazin-1-yl)phenyl)-1-methyl-1H-pyrrolo[2,3-b]pyridine]
5 | 0.663 | 7.9 | 4.3 | Cn1c(-c2ccc(S(C)(=O)=O)cc2)cc2ncc(-c3ccc(CN4CCN(CCC(C)(C)O)CC4)cc3)cc21 [Example 19, 2-Methyl-4-(4-(4-(1-methyl-2-(4-(methylsulfonyl)phenyl)-1H-pyrrolo[3,2-b]pyridin-6-yl)benzyl)piperazin-1-yl)butan-2-ol]
6 | 0.171 | 2 | 2.4 | Cn1c(-c2ccc(S(C)(=O)=O)cc2)cc2ncc(-c3ccc(N4CCNCC4)cc3)cc21 [Example 20, 1-Methyl-2-(4-(methylsulfonyl)phenyl)-6-(4-(piperazin-1-yl)phenyl)-1H-pyrrolo[3,2-b]pyridine]
7 | 0.206 | 9.6 | 8.1 | Cn1c(-c2ccc(S(C)(=O)=O)cc2)cc2ncc(-c3ccc(CN4CCN(CC(C)(C)O)CC4)cc3)cc21 [Example 21]
8 | 0.339 | 7.9 | 14.6 | Cn1c(-c2ccc(S(C)(=O)=O)cc2)cc2ncc(-c3ccc(CN4CCC(C)(O)CC4)cc3)cc21 [Example 22]
9 | 0.069 | > 50 | 23.2 | CC(C)N1CCN(Cc2ccc(-c3cnc4cc(-c5ccc(S(C)(=O)=O)cc5)n(C)c4c3)cc2)CC1 [Example 23]
10 | 0.014 | 4.9 | > 50 | CN(C)C1CCN(Cc2ccc(-c3cnc4cc(-c5ccc(S(C)(=O)=O)cc5)n(C)c4c3)cc2)CC1 [Example 24]
11 | 0.212 | > 50 | 43.8 | CCN1CCN(Cc2ccc(-c3cnc4cc(-c5ccc(S(C)(=O)=O)cc5)n(C)c4c3)cc2)CC1 [Example 25]
12 | 0.236 | 3.2 | 5 | CC(C)N1CCN(c2ccc(-c3cnc4cc(-c5ccc(S(C)(=O)=O)cc5)n(C)c4c3)cc2)[C@H](C)C1 [Example 28]
13 | 0.722 | 3.3 | 2.3 | CC(C)N1CCN(c2ccc(-c3cnc4cc(-c5ccc(S(C)(=O)=O)cc5)n(C)c4c3)cc2)C[C@@H]1C [Example 29]
14 | 0.576 | 4.8 | 5.3 | CC(C)N1CCN(c2ccc(-c3cnc4cc(-c5ccc(S(C)(=O)=O)cc5)n(C)c4c3)cc2)[C@@H](C)C1 [Example 30]
15 | 0.48 | 2.5 | 4.5 | CC(C)N1C[C@H](C)N(c2ccc(-c3cnc4cc(-c5ccc(S(C)(=O)=O)cc5)n(C)c4c3)cc2)[C@@H](C)C1 [Example 31]
16 | 0.243 | 11.4 | 15.1 | CC(C)N1CCN(c2ccc(-c3cnc4cc(-c5ccc(S(C)(=O)=O)cc5)n(C)c4c3)cc2)C[C@H]1C [Example 32]
17 | 0.7 | – | – | CN(C)S(=O)(=O)c1cccc(-c2cc3ncc(-c4ccc(N5CCN(C6CC6)CC5)cc4)cc3n2C)c1 [Example 44]
18 | > 50 | – | – | Cn1c(-c2ccc(S(C)(=O)=O)cc2F)cc2ncc(-c3ccc(N4CCN(C5CC5)CC4)cc3)cc21 [Example 45]
